Assay results from patent US11844845B2, “Cell penetrating peptide, conjugate comprising same, and composition comprising conjugate” (GEMVAX & KAEL CO., LTD., priority 2012, dated 2023).

Tested on: HeLa cell
Assay: Cell penetration of pep(CPP)-FITC conjugate in HeLa cell line, flow cytometry (FACS)
Format: cell-based, Homo sapiens
Conditions: HeLa cells, 20 uM FITC-fused peptide, 37° C. for an hour, control = FITC only
Description: Homo sapiens cervix adenocarcinoma cell line as HeLa cell lines were purchased from ATCC (American Type Cell Culture). The cells were cultured in MEM supplemented with 10% fetal bovine serum (Invitrogen, USA), Earle's salts, non-essential amino acids, sodium pyruvate and 100 μg/ml penicillin and 10 units/ml streptomycin and cultured at 37° C., 5% CO2 incubator.
Flow cytometry and Confocal microscope analysis were performed to compare the between degree of cellular uptake of the cells were treated with SEQ ID NO: 2 to SEQ ID NO: 178, pep (CPP) and control.
The cell line was divided in a 6-well plate and cultured in a medium containing 10% fetal bovine serum (Invitrogen, USA), 100 μg/ml penicillin, 100 units/ml streptomycin at 37° C. 5% CO2 incubator for 12 hours. After washing the cell line with PBS, starvation was induced in a Minimum Essential Medium for an hour. 20 uM of each carrier peptide was treated and cultured at 37° C. for an hour. After repeating the step of washing the cells with PBS for three times, Trypsin-EDTA was treated form 10 mins at 37° C. to separate the carrier peptide on the outside of the cell. cells were collected with refrigerated PBS and centrifugation was performed to repeat the step of washing the cells for three times. After then, the cells were suspended in 0.5 ml of PBS containing 4% Paraformaldehyde and fluorescence of the cells was analyzed using FACS Calibur (Becton Dickinson). The cellular uptake aspect of control and various peptides combined with FITC was compared and analyzed by MFI (Mean Fluorescence Intensity).
Analysis results shown in FIGS. 2 to 29 are given in detail in Table 7 below.

| Substance | cellular uptake, MFI (Mean Fluorescence Intensity) |
| --- | --- |
| EVRQHREARPALLTSRLRFIPK (listed as Homo sapiens) [Pep-RIA-6] | 16.09 ± 2.52 |
| EVRQHREARPALLTSRLRFIPKP (listed as Homo sapiens) [Pep-RIA-40] | 15.14 ± 3.52 |
| EVRQHREARPALLTSRLRFIPKPD (listed as Homo sapiens) [Pep-RIA-41] | 13.58 ± 2.78 |
| EVRQHREARPALLTSRLRFIPKPDG (listed as Homo sapiens) [Pep-RIA-42] | 15.27 ± 1.65 |
| EVRQHREARPALLTSRLRFIPKPDGL (listed as Homo sapiens) [Pep-RIA-43] | 15.34 ± 1.35 |
| EVRQHREARPALLTSRLRFIPKPDGLRP (listed as Homo sapiens) [Pep-RIA-45] | 14.23 ± 1.65 |
| EVRQHREARPALLTSRLRFIPKPDGLRPI (listed as Homo sapiens) [Pep-RIA-58] | 17.96 ± 0.97 |
| FIPK (listed as Homo sapiens) [Pep-RIA-102] | 12.64 ± 0.44 |
| HREARPALLTSRLRFIPK (listed as Homo sapiens) [Pep-RIA-2] | 20.56 ± 1.23 |
| HREARPALLTSRLRFIPKP (listed as Homo sapiens) [Pep-RIA-16] | 15.96 ± 2.37 |
| HREARPALLTSRLRFIPKPD (listed as Homo sapiens) [Pep-RIA-17] | 13.61 ± 0.22 |
| HREARPALLTSRLRFIPKPDG (listed as Homo sapiens) [Pep-RIA-22] | 14.42 ± 0.28 |
| HREARPALLTSRLRFIPKPDGL (listed as Homo sapiens) [Pep-RIA-29] | 15.26 ± 0.95 |
| HREARPALLTSRLRFIPKPDGLR (listed as Homo sapiens) [Pep-RIA-38] | 18.02 ± 0.71 |
| HREARPALLTSRLRFIPKPDGLRP (listed as Homo sapiens) [Pep-RIA-49] | 15.15 ± 0.62 |
| HREARPALLTSRLRFIPKPDGLRPI (listed as Homo sapiens) [Pep-RIA-62] | 18.89 ± 0.75 |
| IPK (listed as Homo sapiens) [Pep-RIA-103] | 10.44 ± 0.18 |
| LLT (listed as Homo sapiens) [Pep-RIA-152] | 12.58 ± 0.47 |
| LLTS (listed as Homo sapiens) [Pep-RIA-151] | 8.81 ± 0.83 |
| LLTSR (listed as Homo sapiens) [Pep-RIA-150] | 14.51 ± 0.81 |
| LLTSRL (listed as Homo sapiens) [Pep-RIA-108] | 14.59 ± 0.17 |
| LLTSRLR (listed as Homo sapiens) [Pep-RIA-149] | 16.2 ± 0.22 |
| LLTSRLRFI (listed as Homo sapiens) [Pep-RIA-147] | 14.93 ± 1.55 |
| LLTSRLRFIP (listed as Homo sapiens) [Pep-RIA-146] | 17.43 ± 0.49 |
| LLTSRLRFIPK (listed as Homo sapiens) [Pep-RIA-95] | 25.79 ± 0.46 |
| LRELSEAEVRQHREARPALLTSRLRFIPK (listed as Homo sapiens) [Pep-RIA-13] | 15.37 ± 1.34 |
| LRFIP (listed as Homo sapiens) [Pep-RIA-174] | 5.66 ± 0.33 |
| LRFIPK (listed as Homo sapiens) [Pep-RIA-100] | 14.69 ± 1.48 |

| Substance | cellular uptake, MFI (Mean Fluorescence Intensity) |
| --- | --- |
| LSEAEVRQHREARPALLTSRLRFIPK (listed as Homo sapiens) [Pep-RIA-10] | 14.64 ± 0.76 |
| LTS (listed as Homo sapiens) [Pep-RIA-158] | 9.91 ± 1.44 |
| LTSR (listed as Homo sapiens) [Pep-RIA-109] | 9.37 ± 0.31 |
| LTSRL (listed as Homo sapiens) [Pep-RIA-157] | 11.42 ± 0.32 |
| LTSRLR (listed as Homo sapiens) [Pep-RIA-156] | 12.21 ± 0.24 |
| LTSRLRF (listed as Homo sapiens) [Pep-RIA-155] | 14.31 ± 0.55 |
| LTSRLRFI (listed as Homo sapiens) [Pep-RIA-154] | 12.21 ± 1.29 |
| LTSRLRFIPK (listed as Homo sapiens) [Pep-RIA-96] | 14.96 ± 0.42 |
| PAL (listed as Homo sapiens) [Pep-RIA-138] | 10.8 ± 0.78 |
| PALL (listed as Homo sapiens) [Pep-RIA-137] | 10.71 ± 1.99 |
| PALLTSR (listed as Homo sapiens) [Pep-RIA-134] | 13.28 ± 0.75 |
| PALLTSRL (listed as Homo sapiens) [Pep-RIA-133] | 12.95 ± 0.69 |
| PALLTSRLR (listed as Homo sapiens) [Pep-RIA-132] | 13.72 ± 0.52 |
| PALLTSRLRF (listed as Homo sapiens) [Pep-RIA-106] | 18.41 ± 1.12 |
| PALLTSRLRFI (listed as Homo sapiens) [Pep-RIA-131] | 13.66 ± 0.87 |
| PALLTSRLRFIP (listed as Homo sapiens) [Pep-RIA-130] | 18.54 ± 1.64 |
| PALLTSRLRFIPK (listed as Homo sapiens) [Pep-RIA-93] | 22.88 ± 1.82 |
| QHREARPALLTSRLRFIPKPDGL (listed as Homo sapiens) [Pep-RIA-28] | 14.8 ± 0.32 |
| QHREARPALLTSRLRFIPKPDGLR (listed as Homo sapiens) [Pep-RIA-37] | 16.73 ± 0.28 |
| QLRELSEAEVRQHREARPALLTSRLRFIPK (listed as Homo sapiens) [Pep-RIA-14] | 23.67 ± 1.22 |
| REARPALLTSRLRFIPK (listed as Homo sapiens) [Pep-RIA-1] | 24.3 ± 0.61 |
| REARPALLTSRLRFIPKP (listed as Homo sapiens) [Pep-RIA-15] | 16.32 ± 0.36 |
| REARPALLTSRLRFIPKPD (listed as Homo sapiens) [Pep-RIA-18] | 13.4 ± 0.34 |
| REARPALLTSRLRFIPKPDG (listed as Homo sapiens) [Pep-RIA-23] | 16.57 ± 0.68 |
| REARPALLTSRLRFIPKPDGL (listed as Homo sapiens) [Pep-RIA-30] | 15.34 ± 0.55 |
| REARPALLTSRLRFIPKPDGLR (listed as Homo sapiens) [Pep-RIA-39] | 15.84 ± 0.79 |
| REARPALLTSRLRFIPKPDGLRP (listed as Homo sapiens) [Pep-RIA-50] | 15.47 ± 0.73 |
